Results published in ChEMBL document CHEMBL1136229, “Design and synthesis of fluorinated RXR modulators” (Bioorg Med Chem Lett, 2003).

Columns and labels:
[1] = target: T1, Retinoic acid receptor gamma (Homo sapiens, UniProt P13631); experiment: Inhibition of 3[H]ATRA binding to retinoid acid receptor gamma expressed in CV-1 cells; assay type: cell-based
T1 sequence (P13631 whole entry): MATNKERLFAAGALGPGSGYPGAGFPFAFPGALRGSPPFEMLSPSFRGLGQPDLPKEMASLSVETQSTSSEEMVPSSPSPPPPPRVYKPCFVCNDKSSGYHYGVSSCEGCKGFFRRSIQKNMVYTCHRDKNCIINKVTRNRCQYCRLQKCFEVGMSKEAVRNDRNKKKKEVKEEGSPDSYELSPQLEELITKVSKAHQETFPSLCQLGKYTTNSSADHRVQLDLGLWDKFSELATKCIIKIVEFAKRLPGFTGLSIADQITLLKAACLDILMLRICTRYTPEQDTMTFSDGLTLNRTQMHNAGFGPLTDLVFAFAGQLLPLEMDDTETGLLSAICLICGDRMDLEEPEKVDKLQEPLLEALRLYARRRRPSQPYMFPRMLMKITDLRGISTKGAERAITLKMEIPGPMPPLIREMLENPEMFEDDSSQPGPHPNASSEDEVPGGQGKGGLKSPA

Homo sapiens = species: Homo sapiens; experiment: Synergistic activation of retinoid acid receptor (RAR) transcriptional activation at 3 nM TTNPB; assay type: functional
[2] = target: T2, Retinoic acid receptor RXR-alpha (Homo sapiens, UniProt P19793); experiment: Antagonist activity against Retinoic acid receptor RXR-alpha expressed in CV-1 cell transcriptional activation assay; assay type: functional, cell-based
T2 sequence (P19793 whole entry): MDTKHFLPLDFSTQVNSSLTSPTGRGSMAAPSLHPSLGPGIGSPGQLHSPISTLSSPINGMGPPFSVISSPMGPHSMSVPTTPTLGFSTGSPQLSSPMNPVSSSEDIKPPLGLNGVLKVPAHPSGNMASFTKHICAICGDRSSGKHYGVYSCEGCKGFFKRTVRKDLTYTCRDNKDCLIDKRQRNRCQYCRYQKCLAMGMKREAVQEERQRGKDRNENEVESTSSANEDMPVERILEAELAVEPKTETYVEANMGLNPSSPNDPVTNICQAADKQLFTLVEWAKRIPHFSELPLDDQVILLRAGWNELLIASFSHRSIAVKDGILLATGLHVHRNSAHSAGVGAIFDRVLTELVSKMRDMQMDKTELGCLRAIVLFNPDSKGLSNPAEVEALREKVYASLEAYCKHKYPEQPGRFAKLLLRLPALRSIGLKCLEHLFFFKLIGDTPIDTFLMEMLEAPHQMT

RXR alpha/PPAR gamma = RXR alpha/PPAR gamma (Homo sapiens, UniProt P19793); experiment: Synergistic activation of BRL-49653 mediated PPAR gamma and retinoid X receptor alpha expressed in CV-1 cell transcriptional activation assay; assay type: functional, cell-based
[3] = target: T2, Retinoic acid receptor RXR-alpha; experiment: Inhibition of 3[H]9-cis-retinoic acid binding to Retinoic acid receptor RXR-alpha expressed in CV-1 cells; assay type: cell-based
[4] = target: T2, Retinoic acid receptor RXR-alpha; experiment: Agonist activity against Retinoic acid receptor RXR-alpha expressed in CV-1 cell transcriptional activation assay; assay type: functional, cell-based
Mus musculus = experiment: Cmax after oral administration at 30 mg/kg in ICR mouse; assay type: ADME, organism-based; set-up: dose 30 mg/kg, route oral; conditions: in vivo
[5] = Tmax after oral administration at 30 mg/kg in ICR mouse; assay type: ADME, organism-based; set-up: dose 30 mg/kg, route oral; conditions: in vivo
[6] = AUC (0-6 hr) after oral administration at 30 mg/kg in ICR mouse; assay type: ADME, organism-based; set-up: time < 6 hr, route oral, dose 30 mg/kg; conditions: plasma

RXR alpha/PPAR gamma, sequence (P37231 whole entry, one chain of several): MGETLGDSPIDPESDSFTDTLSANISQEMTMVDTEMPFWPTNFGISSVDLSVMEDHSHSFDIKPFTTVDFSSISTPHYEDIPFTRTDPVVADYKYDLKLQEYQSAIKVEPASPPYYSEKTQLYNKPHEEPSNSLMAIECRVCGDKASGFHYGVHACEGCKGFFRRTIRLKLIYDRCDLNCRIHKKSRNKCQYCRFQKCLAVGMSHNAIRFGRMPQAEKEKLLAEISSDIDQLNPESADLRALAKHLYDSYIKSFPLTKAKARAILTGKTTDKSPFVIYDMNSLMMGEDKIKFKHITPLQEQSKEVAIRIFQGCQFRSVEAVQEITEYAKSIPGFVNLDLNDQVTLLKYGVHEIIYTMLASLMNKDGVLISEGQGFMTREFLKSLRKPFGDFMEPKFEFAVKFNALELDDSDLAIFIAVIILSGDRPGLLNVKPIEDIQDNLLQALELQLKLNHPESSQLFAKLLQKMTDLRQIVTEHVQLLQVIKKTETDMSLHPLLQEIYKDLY

Ki [1] [nM]	EC50 [2] [nM]	EC50 (RXR alpha/PPAR gamma) [nM]	Ki [3] [nM]	EC50 [4] [nM]	Cmax (Mus musculus) [ng/mL]	Tmax [5] [h]	AUC(0-t) at 6 h [6] [ng·h/mL]	SMILES	Synergy (Homo sapiens)
> 10000	4840	143						C/C(=C/C=C(F)/C(C)=C/C(=O)O)c1cc(C(C)(C)C)cc(C(C)(C)C)c1OCC(F)F	2.5
> 10000	8710	249		259				C/C(=C/C(F)=C/C(C)=C/C(=O)O)c1cc(C(C)(C)C)cc(C(C)(C)C)c1OCC(F)F	8.9
> 10000	6.8	6.4	7.8		3690	3	17800	CC(/C=C/C(F)=C(/C)c1cc(C(C)(C)C)cc(C(C)(C)C)c1OCC(F)F)=C\C(=O)O	1.8

The remaining lines, values behind:

SMILES	Ki [1] [nM]	EC50 [2] [nM]	EC50 (RXR alpha/PPAR gamma) [nM]	Ki [3] [nM]	EC50 [4] [nM]	Cmax (Mus musculus) [ng/mL]	Tmax [5] [h]	AUC(0-t) at 6 h [6] [ng·h/mL]	Synergy (Homo sapiens)
CCCCOc1c(\C(C)=C/C=C/C(C)=C/C(=O)O)cc(C(C)(C)C)cc1C(C)(C)C	> 10000	3.3	9.2	3.8					1.2
CCOc1c(\C(=C/C=C/C(C)=C/C(=O)O)C(F)(F)F)cc(C(C)(C)C)cc1C(C)(C)C		38	167	50.3					7
C/C(=C/C=C/C(C)=C(\F)C(=O)O)c1cc(C(C)(C)C)cc(C(C)(C)C)c1OCC(F)F	> 10000	3.4	2.7	10.6					1.5
CCOc1c(\C(C)=C/C=C/C(C)=C/C(=O)O)cc(C(C)(C)C)cc1C(C)(C)C	8570	6.4							2
CCCCOc1c(\C(C)=C/C=C/C(=C/C(=O)O)C(F)(F)F)cc(C(C)(C)C)cc1C(C)(C)C	> 10000	806	359	5210					1.3
C/C(=C/C=C/C(C)=C/C(=O)O)c1cc(C(C)(C)C)cc(C(C)(C)C)c1OCC(F)F	> 10000					1200	1	2090	1.4
